In US20090074831A1, “LOCAL […] […] OF mTOR INHIBITORS IN COMBINATION WITH PEROXISOME PROLIFERATORS-ACTIVATED RECEPTOR STIMULATORS” (priority 2007, published 2009):

Key:
cell viability = cell viability assay; assay type: cell-based
From the text: (§1) The multiple curves represent various concentrations of topotecan ranging from zero to three hundred nanomolar concentrations.
(§2) The multiple curves represent various concentrations of etoposide ranging from zero to eight hundred nanomolar concentrations.

[1] = tested on: human coronary artery smooth muscle cells; assay: Anti-proliferative activity in synchronized cultured human coronary artery smooth muscle cells stimulated with two percent fetal bovine serum; assay type: cell-based; settings: for effect on anti-proliferative rapamycin dose response curves: leftward and upward shift
From the text: as §1, §2
The multiple curves represent various concentrations of Panzem® ranging from zero to 100 micromolar concentrations.

[2] = in vitro release of sirolimus and cilostazol from dual drug coating; assay type: physicochemical; settings: single-layer sirolimus + cilostazol coating of FIG. 83
[3] = tested on: human coronary artery smooth muscle cell; assay: in vitro cell culture study, coronary artery smooth muscle cell proliferation (trichostatin A); assay type: cell-based
From the text: FIG. 51 is a graph of the inhibition of coronary artery smooth muscle cells by trichostatin A in a cell culture study.

tumor cell lines = settings: Woo et al., J. Med Chem 2002; cited from earlier work
[4] = tested on: human coronary artery smooth muscle cells; assay: Anti-proliferative activity in non-synchronized cultured human coronary artery smooth muscle cells stimulated with two percent fetal bovine serum; assay type: cell-based
From the text: The multiple curves represent various concentrations of mycophenolic acid ranging from zero to one thousand nanomolar concentrations.
FIG. 58 illustrates, in graphical format, the anti-proliferative activity of cladribine in non-synchronized cultured human coronary artery smooth muscle cells stimulated with two percent fetal bovine serum.
The multiple curves represent various concentrations of cladribine ranging from zero to nine hundred nanomolar concentrations.

[5] = in vivo release kinetics from rapamycin / mycophenolic acid EVA/BMA coating, porcine pharmacokinetics studies; settings: EVA/BMA basecoat, 180 micrograms each drug, BMA topcoat 0, 100 or 200 micrograms
[6] = tested on: human coronary artery smooth muscle cell; settings: concentrations up to 30,000.00 nanomolar (6.6 to 30,000.00 nanomolar tested)
From the text: In vitro cytotoxicity tests or assays may be utilized to determine if drugs, agents and/or compounds are potentially toxic and the level of toxicity. Essentially, in vitro cytotoxicity assays determine acute necrotic effects by a drug causing direct cellular damage. The idea behind these assays is that toxic chemicals affect basic functions of cells which are common to all cells. […] There are a number of different assays that may be utilized. In the present invention, the cytotoxicity assay utilized is based upon the measurement of cellular metabolic activity. A reduction in metabolic activity is an indication of cellular damage. Tests that can measure metabolic function measure cellular ATP levels or mitochondrial activity via MTS metabolism. FIG. 69 is a graphical representation of the results of an MTS assay of Panzem®.

[7] = in vivo release kinetics from rapamycin / cladribine EVA/BMA coating, porcine pharmacokinetics studies; set-up: species or system Yorkshire pigs; settings: EVA/BMA basecoat with 200 microgram BMA topcoat, Bx Velocity stents
From the text: The basecoat is applied to Bx Velocity® stents and implanted into Yorkshire pigs.
The basecoat is applied to BxVelocity® stents and implanted into Yorkshire pigs.

[8] = tested on: human smooth muscle cells; assay: Inhibition of human vascular cell proliferation with cladribine, PDGF-stimulated smooth muscle cells; assay type: cell-based
Protocol: To assess the ability of cladribine to prevent cell proliferation, human smooth muscle or endothelial cells (Clonetics, Walkersville, Md.) were seeded at a density of 2000 cells/cm^2 (approximately 3600 cells/well) into each well of 12-well plates and cultured with 1.5 ml of growth medium containing five percent fetal calf serum (FCS). After twenty-four hours, the growth medium was changed and fresh medium containing 10 ng/ml platelet-derived growth factor AB (PDGF AB; LIFE Technologies), as well as various concentrations of cladribine (0.001-10,000 nM) were added with triplicate wells. Medium was replaced with fresh cladribine-containing medium after three days. On day six, cells were detached by trypsinization to yield a cell suspension, lightly centrifuged to pellet and then counted manually using a Neubauer hemocytometer system. Cell viability was assessed by trypan blue exclusion.

[9] = tested on: human coronary artery smooth muscle cells; assay: antiproliferative effects of PX867 on cultured human coronary artery smooth muscle cells; assay type: cell-based; settings: PX867 alone, concentration of about 10^−6 (unit not given)
From the text: A PI3 kinase inhibitor can affect restinosis when administered by local or systemic delivery alone or in combination with sirolimus. FIGS. 87 and 88 illustrate the antiproliferative effects of PX867 on cultured human coronary artery smooth muscle cells alone (FIG. 87) or in combination with sirolimus (FIG. 88). […] Curve 8702 illustrates the percent inhibition for various concentrations. In FIG. 88, the six curves 8802, 8804, 8806, 8808, 8810 and 8812 represent various concentrations of PX867 with various concentrations of sirolimus. […] More specifically, curve 8812 illustrates the percent inhibition for a 240 nM PX-867 concentration. […] This may be compared to curve 8804 which represents a 15 nM PX-867 concentration. As one can see, the percent inhibition increases as the concentration of sirolimus increases. Accordingly, a potent PI3 kinase inhibitor, such as PX-867, can improve the inhibition of coronary artery smooth muscle cell proliferation either as a stand alone treatment or via combination with another restenotic agent, such as sirolimus.

COc1cc([C@@H]2c3cc4c(cc3[C@@H](O[C@@H]3O[C@@H]5CO[C@@H](C)O[C@H]5[C@H](O)[C@H]3O)[C@H]3COC(=O)[C@H]23)OCO4)cc(OC)c1O [etoposide]
cytotoxicity (cell viability; concentrations up to ten micromolar): non-cytotoxic
effect on anti-proliferative rapamycin dose response curves ([1]; etoposide zero to eight hundred nanomolar added to rapamycin): potentiate the anti-proliferative activity of rapamycin

O=C1CCc2cc(OCCCCc3nnnn3C3CCCCC3)ccc2N1 [cilostazol, 6[4-(1-cyclohexyl-1H-tetrazol-5-yl)-butoxy]-3,4-dihydro-2-(1H)-quinolinone]
in vitro release [2]: ~35%

CC[C@@]1(O)C(=O)OCc2c1cc1n(c2=O)Cc2cc3c(CN(C)C)c(O)ccc3nc2-1 [topotecan]
cytotoxicity (cell viability; concentrations up to one micromolar): non-cytotoxic
effect on anti-proliferative rapamycin dose response curves ([1]; topotecan zero to three hundred nanomolar added to rapamycin): does in fact potentiate the anti-proliferative activity of rapamycin

CC(/C=C/C(=O)NO)=C\[C@@H](C)C(=O)c1ccc(N(C)C)cc1 [trichostatin A]
inhibition of human coronary artery smooth muscle cell proliferation [3]: completely inhibit human coronary artery smooth muscle cell proliferation
IC50 ([3]; read-out: anti-proliferative IC50): ~6 nM
anti-proliferative IC50's (tumor cell lines): low nM range

COc1c(C)c2c(c(O)c1C/C=C(\C)CCC(=O)O)C(=O)OC2 [mycophenolic acid]
effect on anti-proliferative rapamycin dose response curve ([4]; mycophenolic acid zero to one thousand nanomolar added to rapamycin, leftward and upward shift): potentiates the anti-proliferative activity of rapamycin
in vivo elution compared with rapamycin [5]: elutes more completely over a shorter duration than the rapamycin

COc1cc2c(cc1O)CC[C@@H]1[C@@H]2CC[C@]2(C)[C@@H](O)CC[C@@H]12 [Panzem®, 2-methoxyestradiol]
anti-proliferative activity ([1]; Panzem alone): extremely effective inhibitor of human coronary artery smooth muscle cell proliferation in vitro
effect on percent inhibition by rapamycin ([1]; Panzem zero to 100 micromolar added to rapamycin): increases the percent of inhibition of rapamycin alone
cytotoxicity (MTS assay), cell survival [6]: do not reduce human coronary artery smooth muscle cell survival

Nc1nc(Cl)nc2c1ncn2[C@H]1C[C@H](O)[C@@H](CO)O1 [Cladribine, 2-chlorodeoxyadenosine]
in vivo elution compared with rapamycin [7]: elutes more rapidly than rapamycin
inhibition of human coronary artery smooth muscle cell proliferation ([4]; cladribine alone): completely inhibits human coronary artery smooth muscle cell proliferation
effect on anti-proliferative rapamycin dose response curves ([4]; cladribine zero to nine hundred nanomolar added to rapamycin, leftward and upward shift): does in fact potentiate the anti-proliferative activity of rapamycin
potency as inhibitor of smooth muscle cells relative to endothelial cells [8]: approximately twice

COC[C@H]1OC(=O)/C(=C\N2CCCC2)C2=C(O)C(=O)C3=C([C@H](OC(C)=O)C[C@]4(C)C(=O)CC[C@@H]34)[C@]21C [PX867]
inhibition of coronary artery smooth muscle cell proliferation [9]: one hundred
